Test results reported in patent US20200131196A1 (Mount Tam Therapeutics, Inc., priority 2017, published 2020).

Columns and labels:
G-402 = test: OncoPanel cell proliferation assay, G-402; type: cell-based, human; details: for GI50: read-out: Cell Count GI50
Experimental: (§1) Cells were grown in RPMI 1640, 10% FBS, 2 mM L-alanyl-L-glutamine, 1 mM Na pyruvate, or a special medium. Cells were seeded into 384-well plates and incubated in a humidified atmosphere of 5% CO2 at 37° C. Compounds were added the day following cell seeding. At the same time, a time zero untreated cell plate was generated. After a 3-day incubation period, cells were fixed and stained to allow fluorescence imaging of nuclei. Compounds (1 mM stock solutions) were serially diluted in half-log steps from the highest test concentration ([…]), and assayed over 10 concentrations with a maximum assay concentration of 0.1% DMSO. Automated fluorescence microscopy was carried out using a Molecular Devices ImageXpress Micro XL high-content imager, and images were collected with a 4× objective. 16-bit TIFF images were acquired and analyzed with MetaXpress 5.1.0.41 software.
(§2) Cell proliferation was measured by the fluorescence intensity of an incorporated nuclear dye. The output is referred to as the relative cell count, where the measured nuclear intensity is transformed to percent of control (POC) using the following formula: […]
(§3) Cellular response parameters were calculated using nonlinear regression to a sigmoidal single-site dose response model:
(§4) EC50 is the test compound concentration at the curve inflection point or half the effective response (parameter C of the fitted curve solution). GI50 is the concentration needed to reduce the observed growth by half (midway between the curve maximum and the time zero value). “Cell Count Activity Area” is an estimate of the integrated area above the curve (Barretina, et al. The Cancer Cell Line Encyclopedia enables predictive modelling of anticancer drug sensitivity. Nature 483: 603-607). […] In rare instances, values <0 or >10 may be observed. […] Curve-fitting, calculations, and report generation was performed using a custom data reduction engine and MathIQ based software (AIM).

SK-MEL-28 = test: OncoPanel cell proliferation assay, SK-MEL-28; type: cell-based, human; details: for GI50: read-out: Cell Count GI50; for IC50: read-out: Cell Count IC50
Experimental: as §1, §2, §3, §4

ST486 = test: OncoPanel cell proliferation assay, ST486; type: cell-based, human; details: for GI50: read-out: Cell Count GI50; for IC50: read-out: Cell Count IC50
Experimental: as §1, §2, §3, §4

CAMA-1 = test: OncoPanel cell proliferation assay, CAMA-1; details: for Cell Count Activity Area: CAMA-1; for EC50: CAMA-1, read-out: Cell Count EC50; for IC50: CAMA-1, read-out: Cell Count IC50
Experimental: (§6) Cells were seeded into 384-well plates and incubated in a humidified atmosphere of 5% CO2 at 37° C. Compounds were added the day following cell seeding. At the same time, a time zero untreated cell plate was generated. After a 3-day incubation period, cells were fixed and stained to allow fluorescence imaging of nuclei. Compounds (1 mM stock solutions) were serially diluted in half-log steps from the highest test concentration (1 micromol), and assayed over 10 concentrations with a maximum assay concentration of 0.1% DMSO. Automated fluorescence microscopy was carried out using a Molecular Devices ImageXpress Micro XL high-content imager, and images were collected with a 4× objective. 16-bit TIFF images were acquired and analyzed with MetaXpress 5.1.0.41 software.

A388 = test: OncoPanel cell proliferation assay, A388; type: cell-based, human; details: for GI50: read-out: Cell Count GI50
Experimental: as §1, with “Cells” for “Cells were grown in RPMI 1640, 10% FBS, 2 mM L-alanyl-L-glutamine, 1 mM Na pyruvate, or a special medium. Cells”
as §2, §3
(§5) GI50 is the concentration needed to reduce the observed growth by half (midway between the curve maximum and the time zero value). […] In rare instances, values <0 or >10 may be observed. […] Curve-fitting, calculations, and report generation was performed using a custom data reduction engine and MathIQ based software (AIM).

T24 = test: OncoPanel cell proliferation assay, T24; type: cell-based, human; details: for GI50: T-24, read-out: Cell Count GI50
Experimental: as §1, §2, §3, §4

CHP-212 = test: OncoPanel cell proliferation assay, CHP-212; details: for Cell Count Activity Area: CHP-212; for GI50: CHP-212, read-out: Cell Count GI50; for IC50: CHP-212, read-out: Cell Count IC50
Experimental: as §6

SK-N-AS = test: OncoPanel cell proliferation assay, SK-N-AS; type: cell-based, human; details: for EC50: read-out: Cell Count EC50; for GI50: read-out: Cell Count GI50
Experimental: as §1, §2, §3, §4

NCI-H510A = test: OncoPanel cell proliferation assay, NCI-H510A; type: cell-based, human; details: for EC50: read-out: Cell Count EC50; for GI50: read-out: Cell Count GI50
Experimental: as §1, §2, §3, §4

AGS = test: OncoPanel cell proliferation assay, AGS; type: cell-based, human; details: for GI50: read-out: Cell Count GI50; for IC50: read-out: Cell Count IC50
Experimental: as §1, §2, §3, §4

CaOV3 = test: OncoPanel cell proliferation assay, CaOV3; type: cell-based, human; details: for GI50: Caov-3, read-out: Cell Count GI50
Experimental: as §1, §2, §3, §4

U2OS = test: OncoPanel cell proliferation assay, U2OS; type: cell-based, human; details: for GI50: read-out: Cell Count GI50
Experimental: as §1, with “Cells” for “Cells were grown in RPMI 1640, 10% FBS, 2 mM L-alanyl-L-glutamine, 1 mM Na pyruvate, or a special medium. Cells”
as §2, §3, §5

[1] = Homo sapiens, read-out: Cell Count EC50
[2] = Homo sapiens, read-out: Cell Count IC50

SMILES: CO[C@H]1C[C@@H]2CC[C@@H](C)[C@@](O)(O2)C(=O)C(=O)N2CCCC[C@H]2C(=O)O[C@H]([C@H](C)C[C@@H]2CC[C@@H](O)[C@H](OC)C2)CC(=O)[C@H](C)/C=C(\C)[C@@H](O)[C@@H](OC)C(=O)[C@H](C)C[C@H](C)/C=C/C=C/C=C/1C [Rapamycin, reference compound]
- Cell Count Activity Area (G-402): 4.68
- EC50 (G-402; [1]): 0.111 nM
- GI50 (G-402; Homo sapiens): 0.182 nM
- IC50 (G-402; [2]): 0.334 nM
- Cell Count Activity Area (SK-MEL-28): 2.50
- EC50 (SK-MEL-28; [1]): 0.654 nM
- GI50 (SK-MEL-28; Homo sapiens): 98.7 nM
- IC50 (SK-MEL-28; Homo sapiens): > 1000 nM
- Cell Count Activity Area (ST486): 3.99
- EC50 (ST486; [1]): 0.0354 nM
- GI50 (ST486; Homo sapiens): 0.0524 nM
- IC50 (ST486; Homo sapiens): > 1000 nM
- Cell Count Activity Area (CAMA-1): 4.07
- EC50 (CAMA-1; Homo sapiens): 0.194 nM
- IC50 (CAMA-1; Homo sapiens): 1.19 nM
- EC50 (A388; [1]): > 1000 nM
- GI50 (A388; Homo sapiens): > 1000 nM
- IC50 (A388; [2]): > 1000 nM
- Cell Count Activity Area (T24): 4.39
- EC50 (T24; Homo sapiens, T-24, read-out: Cell Count EC50): 0.0783 nM
- GI50 (T24; Homo sapiens): 0.474 nM
- IC50 (T24; Homo sapiens, T-24, read-out: Cell Count IC50): 2.1 nM
- Cell Count Activity Area (CHP-212): 4.13
- EC50 (CHP-212; Homo sapiens, CHP-212, read-out: Cell Count EC50): 0.0376 nM
- GI50 (CHP-212; Homo sapiens): 0.0707 nM
- IC50 (CHP-212; Homo sapiens): > 1000 nM
- Cell Count Activity Area (SK-N-AS): 3.58
- EC50 (SK-N-AS; Homo sapiens): 0.231 nM
- GI50 (SK-N-AS; Homo sapiens): 0.432 nM
- IC50 (SK-N-AS; [2]): > 1000 nM
- Cell Count Activity Area (NCI-H510A): 1.63
- EC50 (NCI-H510A; Homo sapiens): > 1000 nM
- GI50 (NCI-H510A; Homo sapiens): > 1000 nM
- IC50 (NCI-H510A; [2]): > 1000 nM
- Cell Count Activity Area (AGS): 5.67
- EC50 (AGS; [1]): 0.0387 nM
- GI50 (AGS; Homo sapiens): 0.165 nM
- IC50 (AGS; Homo sapiens): 0.314 nM
- Cell Count Activity Area (CaOV3): 2.40
- EC50 (CaOV3; Homo sapiens, Caov-3, read-out: Cell Count EC50): > 1000 nM
- GI50 (CaOV3; Homo sapiens): > 1000 nM
- IC50 (CaOV3; Homo sapiens, Caov-3, read-out: Cell Count IC50): > 1000 nM
- Cell Count Activity Area (U2OS): 3.04
- EC50 (U2OS; [1]): 0.65 nM
- GI50 (U2OS; Homo sapiens): 2.54 nM
- IC50 (U2OS; [2]): > 1000 nM

SMILES: CN[C@@H]1C[C@H]2O[C@@](C)([C@@H]1OC)n1c3ccccc3c3c4c(c5c6ccccc6n2c5c31)C(=O)NC4 [Staurosporine, reference compound]
- Cell Count Activity Area (G-402): 5.93
- GI50 (G-402; Homo sapiens): 0.664 nM
- Cell Count Activity Area (SK-MEL-28): 2.81
- GI50 (SK-MEL-28; Homo sapiens): 32.1 nM
- IC50 (SK-MEL-28; Homo sapiens): 64.3 nM
- Cell Count Activity Area (ST486): 4.89
- GI50 (ST486; Homo sapiens): 2.83 nM
- IC50 (ST486; Homo sapiens): 4.61 nM
- Cell Count Activity Area (CAMA-1): 2.99
- EC50 (CAMA-1; Homo sapiens): 20.2 nM
- GI50 (CAMA-1; Homo sapiens, CAMA-1, read-out: Cell Count GI50): 12 nM
- IC50 (CAMA-1; Homo sapiens): 99 nM
- Cell Count Activity Area (A388): 4.99
- GI50 (A388; Homo sapiens): 1.03 nM
- Cell Count Activity Area (T24): 5.96
- GI50 (T24; Homo sapiens): 0.829 nM
- Cell Count Activity Area (CHP-212): 4.80
- GI50 (CHP-212; Homo sapiens): 2.59 nM
- IC50 (CHP-212; Homo sapiens): 4.78 nM
- Cell Count Activity Area (SK-N-AS): 4.83
- EC50 (SK-N-AS; Homo sapiens): 1.7 nM
- GI50 (SK-N-AS; Homo sapiens): 1.27 nM
- Cell Count Activity Area (NCI-H510A): 1.68
- EC50 (NCI-H510A; Homo sapiens): 39.8 nM
- GI50 (NCI-H510A; Homo sapiens): 56.5 nM
- Cell Count Activity Area (AGS): 6.19
- GI50 (AGS; Homo sapiens): 0.926 nM
- IC50 (AGS; Homo sapiens): 1.21 nM
- Cell Count Activity Area (CaOV3): 5.31
- GI50 (CaOV3; Homo sapiens): 0.273 nM
- GI50 (U2OS; Homo sapiens): 2.63 nM
